Measured values: article PMC10176470, “Engaging a Non-catalytic Cysteine Residue Drives Potent and Selective Inhibition of Caspase-6” (Journal of the American Chemical Society, 2023)

Biological target: proteins of HEK293T cells transiently overexpressing caspase-6 (Homo sapiens, UniProt P49591)
Assay type: cell-based
Settings: exp_ref Probe; protein SARS (P49591); analysis C6

Chain of proteins of HEK293T cells transiently overexpressing caspase-6 (P49591 whole entry, looked up): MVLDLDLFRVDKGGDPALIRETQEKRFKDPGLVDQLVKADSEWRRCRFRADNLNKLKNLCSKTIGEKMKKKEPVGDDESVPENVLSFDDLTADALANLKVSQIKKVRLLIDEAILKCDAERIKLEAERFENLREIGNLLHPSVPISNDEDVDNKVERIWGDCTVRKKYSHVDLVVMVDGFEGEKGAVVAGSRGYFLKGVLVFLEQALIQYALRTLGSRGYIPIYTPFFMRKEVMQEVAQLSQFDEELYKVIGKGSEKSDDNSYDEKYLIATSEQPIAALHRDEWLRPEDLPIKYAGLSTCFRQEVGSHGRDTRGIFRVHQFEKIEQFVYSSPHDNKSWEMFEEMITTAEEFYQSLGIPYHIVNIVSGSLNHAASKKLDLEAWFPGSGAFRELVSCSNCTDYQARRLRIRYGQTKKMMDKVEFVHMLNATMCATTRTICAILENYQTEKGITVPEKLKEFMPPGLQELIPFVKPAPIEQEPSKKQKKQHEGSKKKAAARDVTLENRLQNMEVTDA

Structure (SMILES): C#CCOc1ccc([C@@H]2C[C@@H](C(=O)Nc3ccc(OC(F)(F)F)cc3)CN(S(=O)(=O)C=C)C2)cc1 (relative stereo) [13-t]
- enrich.exp.med: 0.8697
